The text below walks through data of patent publication US20070037783A1, “Migrastatin analogs and uses thereof” (priority 2003, published 2007).

Series [1] relates to 4T1 mouse breast tumor cells. The experiment in a line: Wound-healing assay with 4T1 cells (FIG. 6). In kind it is cell-based. Particulars: with serum; 200 μM; overnight. An excerpt: In the wound healing assay, standard scratches (i.e., wounds) were made through a confluent 4T1 cell layer. In the absence of serum, cells would not migrate across the empty space created by application of the scratch. Upon addition of serum containing migration-enabling factors, migration of 4T1 cells across the scratch was induced. Exposure to these cells to inventive compounds allowed the evaluation of the cell migration inhibitory activity of these compounds.
Wound-Healing Assay (See FIG. 6). 4T1 mouse breast tumor cells in RPMI-1640 medium containing 10% fetal bovine serum (FBS) were seeded into wells of 24-multiwell plates (Becton-Dickinson). After cells grew to confluence, wounds were made with sterile pipette tips. Cells were washed with Phosphate Buffered Saline (PBS) and refreshed with growth medium containing different concentrations of chemical compounds. After overnight incubation at 37° C., cells were fixed and photographed.

In a further series the test system is 4T1 tumor cells. Put plainly: Cell proliferation assay (MTT). As to conditions: MTT, 48 h; up to 20 μM.
Series [2] can be described thus: Mouse plasma stability study (HPLC). In kind it is in vitro ADME. As to the method: Mouse Plasma Stability Studies (Table 5): HPLC conditions: The sample is injected and separated using an Inertsil ODS3 6u 3×150 mm column with a mobile phase of MeCN and water (50% for migrastatin) at a flow of 0.4 mL/min, monitored at 220 nm at 0.02 AUFS (the retention time for migrastatin is ca. 4 min, the identity of this peak was confirmed by mass spectral analysis). Incubation and sample preparation conditions: A solution (ca. 30 mM) of chemical compound (Table 5) in DMSO is prepared. 2 μL of the solution is added to a mixture containing 200 μL of mouse plasma and 800 μL of PBS. The resulting solution is put into a water bath at 37° C., and 100 μL of sample is withdrawn at 10, 20, 30, 45, and 60 min. The precipitate is removed by centrifugation and 20 μL of the supernatant is injected onto the HPLC.

For series [3], the system named is HUVECs (human umbilical vein endothelial cells). Put plainly: Boyden chamber cell migration assay with HUVECs. In kind it is cell-based. As to conditions: chamber cell migration; average of three experiments; read-out: IC50 (HUVEC). As to the method:
(§1) Chamber Cell Migration Assay (Tables 4 and 6): Cell migrations were assayed with Boyden chambers [8.0 μm pore size, polyethylene terephthalate membrane, FALCON cell culture insert (Becton-Dickinson)]. 4T1 mouse breast tumor cells or HUVECs were trypsinized and counted. 300 μl of 5-10×10^4 cells in serum-free medium was added to the upper chamber and 500 μl of medium with 10% fetal bovine serum (FBS) was added to the lower chamber. The transwells were incubated for 6-8 h at 37° C. with different concentrations of chemical compound in both upper and lower chamber. Cells on the inside of the transwell inserts were removed with a cotton swab, and cells on the underside of the insert were fixed and stained. Photographs of three random regions were taken and the number of cells was counted to calculate the average number of cells that have transmigrated.

Series [4] deals with 4T1 mouse breast tumor cells. The experiment in a line: Boyden chamber cell migration assay with 4T1 tumor cells. As to conditions: chamber cell migration, 6-8 h; average of three experiments; read-out: IC50 (4T1 tumor cells). In kind it is cell-based. As to the method: The biological evaluation of the compounds (in terms of their ability to inhibit cell migration) was accomplished in a Boyden chamber cell migration assay. In this assay, mouse breast tumor cells (4T1 cells) or endothelial cells (HUVECs) are seeded on the upper chamber of a transwell insert. Growth factor-containing serum is added to the lower chamber.
as §1, with “The transwells were incubated for 6-8 h at 37° C. with different concentrations of chemical compound in both upper and lower chamber.” left out

Series [5] has as its system 4T1 tumor lung metastasis. The experiment in a line: 4T1 tumor lung metastasis in syngeneic mice (6-thioguanine clonogenic assay). In kind it is in vivo, BALB/c mice. As to conditions: for lung metastasis colonies: lungs Day 28, mean and standard deviation. An excerpt:
Inhibition of metastasis of mouse breast tumors by migrastatin alogs in mice. 4T1 mouse breast tumor cell line was isolated from a single spontaneously arising mammary tumor from a BALB/BfC3H mouse (MMTV+).^62 The 4T1 tumor closely mimics human breast cancer in its anatomical site, immunogenecity, growth characteristics, and metastatic properties.^63 From the mammary gland, 4T1 tumor spontaneously metastasizes to a variety of target organs including the lung, bone, brain, and liver through primarily a hematogenous rout.^64
To assess the efficacy of therapeutic application of migrastatin analogs in the 4T1 murine mammary carcinoma models, we administered migrastatin analogs (macroketone and macrolactam) to BALB/c mice carrying the 4T1 tumors.
(§2) Female BALB/c mice (6-8 week old) were purchased from the Jackson Laboratory (Bar Harbor, Me.). All mice were housed at the Weill Medical College of Cornell University Animal Facilities in accordance with the Principles of Animal Care (NIH publication no. 85-23, revised 1985). 4T1 tumor cells (1×10^5) were injected subcutaneously into the abdominal mammary gland area of mice in 0.1 ml of a single-cell suspension in phosphate buffered saline (PBS) on Day 0. The dosage of tumor implantation was empirically determined to give rise to tumor of ˜10 mm in diameter in untreated wild type mice in 21-23 days. On Day 7, when the tumors averaged in size ˜4-5 mm in diameter, migrastatin analogs or control PBS saline were given every day by intraperitoneal injection at 10 mg/kg or 20 mg/kg per mouse until Day 25. On Day 28, the mice were sacrificed. This regiment of migrastatin analogs was well tolerated with no signs of overt toxicity. Every group included five mice. Primary tumors were measured using electronic calipers on the day when the mice were sacrificed. Tumor size was the square root of the product of two perpendicular diameters. Numbers of metastatic 4T1 cells in lung were determined by the clonogenic assay.^63 In brief, lungs were removed from each mouse on Day 28, finely minced and digested in 5 ml of enzyme cocktail containing 1× PBS and 1 mg/ml collagenase type IV for 2 hours at 37° C. on a platform rocker. After incubation, samples were filtered through 70 uM nylon cell strainers and washed twice with PBS. Resulting cells were suspended and plated serially diluted in 10 cm tissue culture dishes in medium RPMI1640 containing 60 uM thioguanine for clonogenic growth. 6-Thioguanine-resistant tumor cells formed foci after 14 days, at which time they were fixed with methanol and stained with 0.03% methylene blue for counting.
Treatment 4T1 tumor lung metaotmis in smgencie mice with Kigrastatin analogs (See, FIG. 4). 4T1 tumor cells (10^5) were injected s.c. in the abdominal mammary gland with 0.1 ml of a single-cell suspension. Macroketone or macrolactam at 10 mg/kg or 20 mg/kg was given i.p. on Day 7 when the tumor size was about 5 mm in diameter, and everyday until Day 25. On Day 28, the mice were sacrificed. Each group comprised five mice. Lung metastasis was measured by the 6-thiogunine clonogenic assay. The mean and standard deviation are presented. In the control group (daily PBS injection), there were 61300±18900 colonies.

The subject of another series is 4T1 tumors. The experiment in a line: Effect on 4T1 primary tumor growth in mice. In kind it is in vivo, BALB/c mice. As to conditions: 10 mg/kg i.p. daily Day 7-25; tumors measured Day 28. As to the method:
as §2, with “This regiment of migrastatin analogs was well tolerated with no signs of overt toxicity. Every group included five mice.” left out, “Tumor size was the square root of the product of two perpendicular diameters.” left out, “After incubation, samples were filtered through 70 uM nylon cell strainers and washed twice with PBS. Resulting cells were suspended and plated serially diluted in 10 cm tissue culture dishes in medium RPMI1640 containing 60 uM thioguanine for clonogenic growth. 6-Thioguanine-resistant tumor cells formed foci after 14 days, at which time they were fixed with methanol and stained with 0.03% methylene blue for counting.” left out
Effect of migrastatin analogs on 4T1 tumor cell growth (See, FIG. 5). […] On Day 28, primary tumors were measured using electronic calipers. […]

For `COC1C=CCCCCC(=O)OCC(C)=CC(C)C1O` (stereo not shown) [macrolactone (48), Macrolactone], the “inhibition of 4T1 cell migration across the scratch, in words” value in series [1] was “almost completely inhibited cell migration across the scratch”. Moreover, the “cytotoxic or anti-proliferative effects on 4T1 cells, in words” value in the series on 4T1 tumor cells is on record as “did not have any cytotoxic or anti-proliferative effects up to 20 μM”. In series [2] (mouse plasma/PBS, 37° C., sampled up to 60 min), the “stability (t1/2, mouse plasma)” value is less than 5 min. In addition, in series [2] (stable = intensity of HPLC signal unchanged over 60 min of incubation), the “stability (mouse plasma), in words” value is “hydrolyzed rapidly”. Besides, the figures for the IC50 in series [3] and in series [4] were 125 nM and 24 nM, respectively.

As for `COC1C=CCCCCC(=O)CCC(C)=CC(C)C1O` (stereo not shown) [macroketone (60), Macroketone], the figures for the “inhibition of lung metastasis” value in series [5] (10 mg/kg i.p. daily Day 7-25) and in series [5] (20 mg/kg i.p. daily Day 7-25) were approximately 94% and approximately 99%, respectively. Further, the lung metastasis colonies in series [5] (10 mg/kg i.p. daily Day 7-25) was 3875±2525 colonies; in series [5] (20 mg/kg i.p. daily Day 7-25), 650±575 colonies. Further, the “effect on growth of 4T1 primary tumors, in words” value with 4T1 tumors is “minor effect on tumor growth”. For the same molecule, the IC50 is 12000 nM in series [3] and 100 nM in series [4].

The term IC50 denotes the concentration that gives 50% inhibition.
